The record followed here is US12349708B2, “Use and methods of 1,3-propanediol to improve taste and/or off-taste qualities” (Primient Covation LLC, priority 2019, dated 2025).

Molecules are shown by their SMILES.

In this assay the test system is descriptive panel of 8 panelists. Description: Descriptive analysis of 5HE, BANG and energy shot prototype drinks with and without bioPDO (Example 6). Format: in vivo, human. The following applies: addition of bioPDO (0.1%). As for the experimental part:
A formal sensory testing called descriptive analysis (DA) was performed by 8 trained panelists in triplicate (n=24) on energy shot prototype, BANG prototype samples, and 5HE SHOT prototype samples with & without bioPDO. All samples were served to panelists at ambient temperature 20±2° C.
A qualified descriptive panel of 8 panelists, experienced in the sensory analysis of a range of products, was used for this research.
The protocol for descriptive analysis was divided into two distinct phases. 1) During the panel orientation phase, panelists tasted the samples and formulated a lexicon of descriptive taste, mouthfeel, aftertaste and after feel attributes to describe them. A final list of 3 taste, 3 mouthfeel, 3 aftertaste and 1 after feel attributes were determined (Table 37). During the sample testing phase, which took place over 2 separate days, the products were evaluated in triplicate (total evaluations n=24). […]
Following consumption of the 1st sip, panelists assessed the attribute ‘initial harshness mouthfeel’. The remaining attributes (including ‘harshness mouthfeel’) were then measured by panelists on the 2nd sip. Aftertaste/feel attributes were measured 30 seconds after ingestion of the 2nd sip. […]
The sensory attributes of the products were scored on unstructured 10 cm line scales labeled at both ends with extremes of each descriptive term. […]

For the molecule `OCCCO` [PDO, 1,3-propanediol], the “overall taste quality of energy shots/drink” value is “significantly improves overall taste quality”.
